Assay results from patent publication US20130295154A1, “POLY(METH)ACRYLATE BASED MICROCAPSULES COMPRISING PHEROMONE” (BASF SE, priority 2011, published 2013).

Test system: male codling moths
Assay: Wind tunnel test, behavioral responses of male codling moths
Format: in vivo, Cydia pomonella (codling moth)
[1] = Example 6, mean percentage, 100000 μg alone
[2] = Example 5, 100 μg alone, initial values
[3] = Example 6, mean percentage, 100 μg alone

Structure (SMILES) | Oriented Flight of Males [1] [%] | Source Contact of Males [1] [%] | Upwind Response of Males [1] [%] | Oriented Flight of Males [2] | Source Contact of Males [2] | Upwind Response of Males [2] | Oriented Flight of Males [3] [%] | Source Contact of Males [3] [%] | Upwind Response of Males [3] [%]
CC(C)=CCC/C(C)=C/CC/C(C)=C/CO [E,E-farnesol] | 0 | 0 | 25 |  |  |  |  |  | 
CCCCCOC(C)=O [amyl acetate] | 5 | 0 | 30 |  |  |  |  |  | 
C/C=C/C=C/CCCCCCCO [codlemone, (E,E)-8,10-dodecadien-1-ol] |  |  |  | 55 | 40 | 60 | 60 | 50 | 70
CCCCCCCCCCCCO [dodecanol] | 0 | 0 | 20 |  |  |  |  |  | 
CCOC(=O)CC(C)C [ethyl isovalerate, ethyl 3-methylbutanoate] | 10 | 0 | 30 |  |  |  |  |  | 
COC(=O)c1ccccc1O [methyl salicylate] | 0 | 0 | 25 |  |  |  |  |  | 
CCCCC/C=C\C=C\C(=O)OCC [pear ester, ethyl (2E,4Z)-decadienoate] | 0 | 0 | 27 |  |  |  |  |  | 
